Assay results reported in ChEMBL document CHEMBL1201862, “PubChem BioAssay data set” (2004).
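Assay format: 96-well plates, 48-hour exposure. GI50 marks 50% less growth.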 Active and inactive are the calls of the source. No stated cut-off is given here; in the data, active = GI50 up to about 1.1 µM and inactive = higher.

Legend:
Assay in all cases: NCI-60 cell line screen, 48 h
LOX IMVI = tested on: LOX IMVI
Hs-578T = tested on: Hs-578T
MDA-MB-231 = tested on: MDA-MB-231
IGROV-1 = tested on: IGROV-1
Malme-3M = tested on: Malme-3M
OVCAR-4 = tested on: OVCAR-4
CAKI-1 = tested on: CAKI-1
SK-MEL-2 = tested on: SK-MEL-2
T47D = tested on: T47D
NCI/ADR-RES = tested on: NCI/ADR-RES
SF-268 = tested on: SF-268
EKVX = tested on: EKVX
SK-OV-3 = tested on: SK-OV-3
NCI-H23 = tested on: NCI-H23
BT-549 = tested on: BT-549
UACC-62 = tested on: UACC-62
SK-MEL-28 = tested on: SK-MEL-28
SN12C = tested on: SN12C
MDA-N = tested on: MDA-N
SNB-19 = tested on: SNB-19
PC-3 = tested on: PC-3
RPMI-8226 = tested on: RPMI-8226
NCI-H226 = tested on: NCI-H226
OVCAR-5 = tested on: OVCAR-5
OVCAR-3 = tested on: OVCAR-3
M14 = tested on: M14
HCT-116 = tested on: HCT-116
MDA-MB-435 = tested on: MDA-MB-435
SF-539 = tested on: SF-539
UACC-257 = tested on: UACC-257
RXF 393 = tested on: RXF 393
SW-620 = tested on: SW-620
U-251 = tested on: U-251
KM12 = tested on: KM12
HOP-92 = tested on: HOP-92
SK-MEL-5 = tested on: SK-MEL-5
OVCAR-8 = tested on: OVCAR-8
A549 = tested on: A549
A498 = tested on: A498
MCF7 = tested on: MCF7
HT-29 = tested on: HT-29
HCT-15 = tested on: HCT-15
NCI-H522 = tested on: NCI-H522
786-0 = tested on: 786-0
TK-10 = tested on: TK-10
K562 = tested on: K562
UO-31 = tested on: UO-31
HOP-62 = tested on: HOP-62
ACHN = tested on: ACHN
SNB-75 = tested on: SNB-75
COLO 205 = tested on: COLO 205
HCC 2998 = tested on: HCC 2998
SF-295 = tested on: SF-295
NCI-H460 = tested on: NCI-H460

Cc1ccc(Nc2[nH]c(=O)[nH]c(=O)c2C)cc1Cl
GI50 (LOX IMVI): > 100 µM (inactive)
GI50 (Hs-578T): 70 µM (inactive)
GI50 (MDA-MB-231): > 100 µM (inactive)
GI50 (IGROV-1): 78.5 µM (inactive)
GI50 (Malme-3M): > 100 µM (inactive)
GI50 (OVCAR-4): > 100 µM (inactive)
GI50 (CAKI-1): 67.3 µM (inactive)
GI50 (SK-MEL-2): > 100 µM (inactive)
GI50 (T47D): > 100 µM (inactive)
GI50 (NCI/ADR-RES): > 100 µM (inactive)
GI50 (SF-268): 87.7 µM (inactive)
GI50 (EKVX): 11 µM (inactive)
GI50 (SK-OV-3): > 100 µM (inactive)
GI50 (NCI-H23): > 100 µM (inactive)
GI50 (BT-549): > 100 µM (inactive)
GI50 (UACC-62): 59.3 µM (inactive)
GI50 (SK-MEL-28): > 100 µM (inactive)
GI50 (SN12C): > 100 µM (inactive)
GI50 (MDA-N): > 100 µM (inactive)
GI50 (SNB-19): > 100 µM (inactive)
GI50 (PC-3): 67.9 µM (inactive)
GI50 (RPMI-8226): 58.5 µM (inactive)
GI50 (NCI-H226): > 100 µM (inactive)
GI50 (OVCAR-5): > 100 µM (inactive)
GI50 (OVCAR-3): 62.1 µM (inactive)
GI50 (M14): > 100 µM (inactive)
GI50 (HCT-116): > 100 µM (inactive)
GI50 (MDA-MB-435): > 100 µM (inactive)
GI50 (SF-539): > 100 µM (inactive)
GI50 (UACC-257): > 100 µM (inactive)
GI50 (RXF 393): > 100 µM (inactive)
GI50 (SW-620): > 100 µM (inactive)
GI50 (U-251): > 100 µM (inactive)
GI50 (KM12): > 100 µM (inactive)
GI50 (HOP-92): 76 µM (inactive)
GI50 (SK-MEL-5): 92 µM (inactive)
GI50 (OVCAR-8): > 100 µM (inactive)
GI50 (A549): > 100 µM (inactive)
GI50 (A498): > 100 µM (inactive)
GI50 (MCF7): 19.5 µM (inactive)
GI50 (HT-29): > 100 µM (inactive)
GI50 (HCT-15): 91.6 µM
GI50 (NCI-H522): > 100 µM (inactive)
GI50 (786-0): > 100 µM (inactive)
GI50 (TK-10): 91.8 µM (inactive)
GI50 (K562): > 100 µM (inactive)
GI50 (UO-31): 30.4 µM (inactive)
GI50 (HOP-62): > 100 µM (inactive)
GI50 (ACHN): > 100 µM (inactive)
GI50 (SNB-75): 29.8 µM (inactive)
GI50 (COLO 205): > 100 µM (inactive)
GI50 (HCC 2998): > 100 µM (inactive)
GI50 (SF-295): 26.2 µM (inactive)
GI50 (NCI-H460): > 100 µM (inactive)
